Measured values as given in patent US20230181482A1, “LIPIDS FOR DELIVERY OF NUCLEIC ACID SEGMENTS” (AstraZeneca AB, priority 2021, published 2023).

Experiments:
[1] = mRNA encapsulation efficiency of LNP formulations (Quant-it Ribogreen assay with Triton-X100); assay type: physicochemical
Method: (§1) A solution of eGFP mRNA (purchased from TriLink Biotechnologies) in citrate buffer was prepared by mixing mRNA dissolved in MilliQ-water, 100 mM citrate buffer (pH 3) and MilliQ-water to give a solution of 50 mM citrate. Lipid solution in ethanol (99.5%) was prepared with four different lipid components: ionizable lipid (see Table 1); cholesterol (Sigma-Aldrich); DSPC (distearoyl phosphatidyl choline, Avanti Polar Lipids Inc); and a polymer-conjugated lipid (see Table 1). The ratio of lipids in all experiments was ionizable lipid/cholesterol/DSPC/polymer-conjugated lipid (50/38.5/10/1.5 mol %). The total concentration of lipids in all experiments was 12.5 mM.
(§2) The mRNA and lipid solutions were mixed in a NanoAssemblr (Precision Nanosystems, Vancouver, BC, Canada) microfluidic mixing system at a mixing ratio of Aq:EtOH=3:1 and a constant flow rate of 12 mL/min. The mRNA in citrate buffer solution was prepared such that, at the time of mixing the ratio between the nitrogen atoms on the ionizable lipid and phosphorus atoms (N/P ratio) on the mRNA chain was either 3:1 or 6:1 (see Table 1).
The final mRNA concentration and encapsulation efficiency percentage (% EE) was measured by Quant-it Ribogreen Assay Kit (ThermoFischer Scientific Inc.) using Triton-X100 to disrupt the LNPs. The mRNA encapsulation efficiency was determined according to the following equation: […]

[2] = LNP particle size by dynamic light scattering (Zetasizer Nano ZS); assay type: physicochemical
Method: as §1, §2
The first 0.2-0.35 mL and the last 0.05-0.1 mL of the LNP suspension prepared were discarded while the rest of the volume was collected as the sample fraction. The size of the mRNA lipid nanoparticles was determined by dynamic light scattering measurements using a Zetasizer Nano ZS from Malvern Instruments Ltd, giving directly the z-average particle diameter. The number-weighted particle size distributions and averages were calculated using a particle refractive index of 1.45.

Female BALB/c mice = assay: eGFP expression in the liver at 24 hours after intravenous administration of LNP formulations to mouse (ELISA); assay type: in vivo; conditions: LNP N/P 3:1, DMPE-PEG2000
Description: Female BALB/c mice were purchased (SPF (Beijing) Laboratory Animal Technology Co. Ltd.) and on arrival were caged in groups of 4 on corncob bedding, with normal diet and were provided tap drinking water ad libitum that was purified and autoclaved before being offered to the animal. The environment was maintained at a target temperature of […] and relative humidity of 40-80%, with a 12-hour light/dark cycle. Animals were acclimatised to the housing conditions for at least 7 days prior to any experimental procedures and were approximately 6-8 weeks of age at the start of dosing
Animals were assigned to respective groups such that the mean body weights for each treatment groups will be equal. N=4 for each treatment group.
Formulations 1, 3, 4, 5, and 6 from Example 58 were each dosed intravenously: Each mouse was removed from its cage and restrained, and then dosed with a slow IV bolus of a formulation in the lateral tail vein at a dose […] of 0.3 mg/kg.
All animals were sacrificed 24 hours after dosing and flowing blood sampling the liver for the animals dosed by the IV route and the liver and muscle at the dose site for the IM dosed animals were harvested for eGFP analysis by ELISA.
Additional LNP formulations were prepared according to the procedures described in Example 46. These formulations were tested using the same protocol as described herein. The results of eGFP expression in the liver at 24 hours after intravenous administration of the formulations were summarized in Tables 3, 4, 5 and 6 below.

[3] = Table 1, LNP with eGFP mRNA, N/P ratio 3:1, DMPE-PEG2000
[4] = Table 1, number-average particle diameter, N/P ratio 3:1, DMPE-PEG2000
[5] = Table 1, z-average particle diameter, N/P ratio 3:1, DMPE-PEG2000
[6] = Table 3, N/P ratio 3:1, DMPE-PEG2000
[7] = Table 4, N/P ratio 3:1, DMPE-PEG2000
[8] = Table 1, LNP with eGFP mRNA, N/P ratio 6:1, DMG-PEG2000
[9] = Table 1, number-average particle diameter, N/P ratio 6:1, DMG-PEG2000
[10] = Table 1, z-average particle diameter, N/P ratio 6:1, DMG-PEG2000

CCCCCC(CCCCC)CCOC(=O)CCCCCCCC(CCCCCCCC(=O)OCCC(CCCCC)CCCCC)NC1CCOCC1 [Compound 2, bis(3-pentyloctyl) 9-[(oxan-4-yl)amino]heptadecanedioate]
% EE [1, 3]: 96%
<d>N (nm) [2, 4]: 58 nm
<d>Z (nm) [2, 5]: 73 nm

CCCCCC(CCCCC)CCOC(=O)CCCCCCCC(CCCCCCCC(=O)OCCC(CCCCC)CCCCC)NCC1CCOC1 (stereo not drawn) [Compound 3, bis(3-pentyloctyl) 9-(((tetrahydrofuran-3-yl)methyl)amino)heptadecanedioate]
% EE [1, 3]: 99%
<d>N (nm) [2, 4]: 58 nm
<d>Z (nm) [2, 5]: 79 nm

CCCCCC(CCCCC)CCOC(=O)CCCCCCCC(CCCCCCCC(=O)OCCC(CCCCC)CCCCC)NCC1CCOCC1 [Compound 4, bis(3-pentyloctyl) 9-(((tetrahydro-2H-pyran-4-yl)methyl)amino)heptadecanedioate]
% EE [1, 3]: 96%
<d>N (nm) [2, 4]: 62 nm
<d>Z (nm) [2, 5]: 81 nm

CCCCCC(CCCCC)CCOC(=O)CCCCCCCC(CCCCCCCC(=O)OCCC(CCCCC)CCCCC)NCC1COC1 [Compound 5, bis(3-pentyloctyl) 9-((oxetan-3-ylmethyl)amino)heptadecanedioate]
% EE [1, 3]: 99%
<d>N (nm) [2, 4]: 54 nm
<d>Z (nm) [2, 5]: 70 nm

CCCCCC(CCCCC)CCOC(=O)CCCCCCCC(CCCCCCCC(=O)OCCC(CCCCC)CCCCC)NCC1CCCCO1 (stereo not drawn) [Compound 6, bis(3-pentyloctyl) 9-(((tetrahydro-2H-pyran-2-yl)methyl)amino)heptadecanedioate]
% EE [1, 6]: 87%
<d>N (nm) [2, 6]: 59 nm
<d>Z (nm) [2, 6]: 77 nm
Liver eGFP protein (ng/g tissue) (Female BALB/c mice; Table 3, 0.3 mg/kg): 3621.3 ng/g tissue

CCCCCC(CCCCC)CCOC(=O)CCCCCCCC(CCCCCCCC(=O)OCCC(CCCCC)CCCCC)NCCC1CCOCC1 [Compound 7, bis(3-pentyloctyl) 9-((2-(tetrahydro-2H-pyran-4-yl)ethyl)amino)heptadecanedioate]
% EE [1, 6]: 94%
<d>N (nm) [2, 6]: 54 nm
<d>Z (nm) [2, 6]: 77 nm
Liver eGFP protein (ng/g tissue) (Female BALB/c mice; Table 3, 0.3 mg/kg): 6526.4 ng/g tissue

CCCCCC(CCCCC)CCOC(=O)CCCCCCCC(CCCCCCCC(=O)OCCC(CCCCC)CCCCC)NCC1CCCO1 (stereo not drawn) [Compound 8, bis(3-pentyloctyl) 9-(((tetrahydrofuran-2-yl)methyl)amino)heptadecanedioate]
% EE [1, 6]: 95%
<d>N (nm) [2, 6]: 61 nm
<d>Z (nm) [2, 6]: 76 nm
Liver eGFP protein (ng/g tissue) (Female BALB/c mice; Table 3, 0.3 mg/kg): 6124.2 ng/g tissue

CCCCCC(CCCCC)CCOC(=O)CCCCCCCC(CCCCCCCC(=O)OCCC(CCCCC)CCCCC)NCC1COCCO1 (stereo not drawn) [Compound 9, bis(3-pentyloctyl) 9-(((1,4-dioxan-2-yl)methyl)amino)heptadecanedioate]
% EE [1, 6]: 93%
<d>N (nm) [2, 6]: 61 nm
<d>Z (nm) [2, 6]: 81 nm
Liver eGFP protein (ng/g tissue) (Female BALB/c mice; Table 3, 0.3 mg/kg): 3160.9 ng/g tissue

CCCCCC(CCCCC)CCOC(=O)CCCCCC(CCCCCC(=O)OCCC(CCCCC)CCCCC)NC1CC2(COC2)C1 [Compound 13, bis(3-pentyloctyl) 7-((2-oxaspiro[3.3]heptan-6-yl)amino)tridecanedioate]
% EE [1, 6]: 93%
<d>N (nm) [2, 6]: 49 nm
<d>Z (nm) [2, 6]: 66 nm
Liver eGFP protein (ng/g tissue) (Female BALB/c mice; Table 3, 0.3 mg/kg): 8798.8 ng/g tissue

CCCCCC(CCCCC)CCOC(=O)CCCCCCCCC(CCCCCCCCC(=O)OCCC(CCCCC)CCCCC)NC1CC2(COC2)C1 [Compound 14, bis(3-pentyloctyl) 10-((2-oxaspiro[3.3]heptan-6-yl)amino)nonadecanedioate]
% EE [1, 6]: 95%
<d>N (nm) [2, 6]: 61 nm
<d>Z (nm) [2, 6]: 77 nm
Liver eGFP protein (ng/g tissue) (Female BALB/c mice; Table 3, 0.3 mg/kg): 8056.3 ng/g tissue

CCCCCC(CCCCC)CCOC(=O)CCCCCCCCC(CCCCCCCCC(=O)OCCC(CCCCC)CCCCC)NC1CCOCC1 [Compound 15, bis(3-pentyloctyl) 10-((tetrahydro-2H-pyran-4-yl)amino)nonadecanedioate]
% EE [1, 7]: 97%
<d>N (nm) [2, 7]: 72 nm
<d>Z (nm) [2, 7]: 89 nm
Liver eGFP protein (ng/g tissue) (Female BALB/c mice; Table 4, 0.3 mg/kg): 829.4 ng/g tissue

CCCCCC(CCCCC)CCOC(=O)CCCCCCCCC(CCCCCCCCC(=O)OCCC(CCCCC)CCCCC)NCC1CCCCO1 (stereo not drawn) [Compound 16, bis(3-pentyloctyl) 10-(((tetrahydro-2H-pyran-2-yl)methyl)amino)nonadecanedioate]
% EE [1, 7]: 91%
<d>N (nm) [2, 7]: 61 nm
<d>Z (nm) [2, 7]: 78 nm
Liver eGFP protein (ng/g tissue) (Female BALB/c mice; Table 4, 0.3 mg/kg): 1393.4 ng/g tissue

CCCCCC(CCCCC)CCOC(=O)CCCCCCCCC(CCCCCCCCC(=O)OCCC(CCCCC)CCCCC)NCC1CCOCC1 [Compound 17, bis(3-pentyloctyl) 10-(((tetrahydro-2H-pyran-4-yl)methyl)amino)nonadecanedioate]
% EE [1, 7]: 93%
<d>N (nm) [2, 7]: 77 nm
<d>Z (nm) [2, 7]: 96 nm
Liver eGFP protein (ng/g tissue) (Female BALB/c mice; Table 4, 0.3 mg/kg): 6831.3 ng/g tissue

CCCCCC(CCCCC)CCOC(=O)CCCCCCCCC(CCCCCCCCC(=O)OCCC(CCCCC)CCCCC)NCC1COC1 [Compound 18, bis(3-pentyloctyl) 10-((oxetan-3-ylmethyl)amino)nonadecanedioate]
% EE [1, 7]: 97%
<d>N (nm) [2, 7]: 67 nm
<d>Z (nm) [2, 7]: 86 nm
Liver eGFP protein (ng/g tissue) (Female BALB/c mice; Table 4, 0.3 mg/kg): 6817.5 ng/g tissue

CCCCCCCCCOC(=O)CCCCCC(CCCCCC(=O)OC(CCCCCCCC)CCCCCCCC)NC1CC2(COC2)C1 (stereo not drawn) [Compound 19, 1-(heptadecan-9-yl) 13-nonyl 7-((2-oxaspiro[3.3]heptan-6-yl)amino)tridecanedioate]
% EE [1, 7]: 92%
<d>N (nm) [2, 7]: 57 nm
<d>Z (nm) [2, 7]: 75 nm
Liver eGFP protein (ng/g tissue) (Female BALB/c mice; Table 4, 0.3 mg/kg): 9938.1 ng/g tissue

CCCCCCCCCOC(=O)CCCCCC(CCCCCC(=O)OC(CCCCCCCC)CCCCCCCC)NCC1COC1 (stereo not drawn) [Compound 20, 1-(heptadecan-9-yl) 13-nonyl 7-((oxetan-3-ylmethyl)amino)tridecanedioate]
% EE [1, 7]: 97%
<d>N (nm) [2, 7]: 53 nm
<d>Z (nm) [2, 7]: 67 nm
Liver eGFP protein (ng/g tissue) (Female BALB/c mice; Table 4, 0.3 mg/kg): 9757.7 ng/g tissue

CCCCCCCCCOC(=O)CCCCCCCN(CCO)CCCCCCCC(=O)OC(CCCCCCCC)CCCCCCCC [MOD5, heptadecan-9-yl 8-((2-hydroxyethyl)(8-(nonyloxy)-8-oxooctyl)amino)octanoate, reference compound]
% EE [1, 8]: 98%
<d>N (nm) [2, 9]: 47 nm
<d>Z (nm) [2, 10]: 66 nm

CCCCCCCCCCCOC(=O)CCCCCN(CCO)CCCCCCCC(=O)OC(CCCCCCCC)CCCCCCCC [MOD8, heptadecan-9-yl 8-((2-hydroxyethyl)(6-oxo-6-(undecyloxy)hexyl)amino)octanoate, reference compound]
% EE [1, 8]: 98%
<d>N (nm) [2, 9]: 49 nm
<d>Z (nm) [2, 10]: 73 nm
